pIC50: −log10 of the molar value. Read-outs that look alike come from different tables or passages of the source. Blank lines part the entries; values can stand above or below the compound they belong to.
Tests used:
[1] = system: panel of kinases; test: Nanosyn kinase panel profiling (panels of 29, 220, 230, 250 kinases), whole panel; assay type: biochemical; conditions: for activity against any of the kinases tested: panel of 29 selected kinases
Experimental: “Inhibiting kinase activity” means to decrease the production of an phosphor-peptide by a particular kinase that can be separated by analytical techniques. […] Profiling data in this application were determined using these techniques at Nanosyn Inc. IC50 data were provided by Reaction Biology Inc using a P33 radiolabeled kinase assay.
These compounds were profiled against a panel of 230 kinases (Nanosyn Inc.).
A total of 15 new inhibitors were designed, prepared, and evaluated against a panel of 29 selected kinases in order to explore the applicability, SAR trends, and the tunability of this scaffold that could be imposed but this unique geometry, Table 21. Inhibitors I-1 to 1-12 all retained the 2-CF3-5-(4-F-phenyl) imidazole-4-carboxamide scaffold previously described (Deitrich, 2010), but explored different Hinge-Gatekeeper Motifs (HGM).
To further test the breadth of applicability and ability to achieve selectivity with inhibitors that share this scaffold geometry, I-11 and I-12 were evaluated against a larger panel of 220 high interest kinases, Table-23.

[2] = biological target: T1, BRAF(V600E) (Homo sapiens, UniProt P15056, V600E); test: LanthaScreen assay, side by side IC50 comparison; assay type: biochemical
Experimental: (§1) To test both our binding mode hypothesis and to see if these structural differences could be taken exploited to impart selectivity and potency improvements, I-13, in which the lipophilic 2-trifluoromethy substituent on imidazole ring of inhibitor KIN-035, was replaced by the polar 2-methylsulfonyl substitutent. […] To address this issue, real time kinetic experiments were performed.

[3] = biological target: wild type B-Raf (Homo sapiens, UniProt P15056); test: LanthaScreen assay, IC50; assay type: biochemical
Experimental: as §1

[4] = biological target: T1, BRAF(V600E); test: Real time kinetic experiments; assay type: biochemical
Experimental: as §1

[5] = biological target: T2, BRAF (Homo sapiens, UniProt P15056); conditions: 1 μM, duplicate, without preincubation; cited from earlier work
T2 construct: literature Ambit Biosciences

[6] = biological target: T3, BTK (Homo sapiens, UniProt Q06187); conditions: 1 μM, duplicate, without preincubation; cited from earlier work
T3 construct: literature Ambit Biosciences

[7] = biological target: T4, CDK11 (Homo sapiens, UniProt Q9BWU1); conditions: 1 μM, duplicate, without preincubation; cited from earlier work
T4 construct: literature Ambit Biosciences

[8] = biological target: T5, CDK7 (Homo sapiens, UniProt P50613); conditions: 1 μM, duplicate, without preincubation; cited from earlier work
T5 construct: literature Ambit Biosciences

[9] = biological target: T6, CSF1R (Homo sapiens, UniProt P07333); conditions: 1 μM, duplicate, without preincubation; cited from earlier work
T6 construct: literature Ambit Biosciences

[10] = biological target: T7, DCAMKL1 (Homo sapiens, UniProt O15075); conditions: 1 μM, duplicate, without preincubation; cited from earlier work
T7 construct: literature Ambit Biosciences
T7 sequence (O15075 1-740): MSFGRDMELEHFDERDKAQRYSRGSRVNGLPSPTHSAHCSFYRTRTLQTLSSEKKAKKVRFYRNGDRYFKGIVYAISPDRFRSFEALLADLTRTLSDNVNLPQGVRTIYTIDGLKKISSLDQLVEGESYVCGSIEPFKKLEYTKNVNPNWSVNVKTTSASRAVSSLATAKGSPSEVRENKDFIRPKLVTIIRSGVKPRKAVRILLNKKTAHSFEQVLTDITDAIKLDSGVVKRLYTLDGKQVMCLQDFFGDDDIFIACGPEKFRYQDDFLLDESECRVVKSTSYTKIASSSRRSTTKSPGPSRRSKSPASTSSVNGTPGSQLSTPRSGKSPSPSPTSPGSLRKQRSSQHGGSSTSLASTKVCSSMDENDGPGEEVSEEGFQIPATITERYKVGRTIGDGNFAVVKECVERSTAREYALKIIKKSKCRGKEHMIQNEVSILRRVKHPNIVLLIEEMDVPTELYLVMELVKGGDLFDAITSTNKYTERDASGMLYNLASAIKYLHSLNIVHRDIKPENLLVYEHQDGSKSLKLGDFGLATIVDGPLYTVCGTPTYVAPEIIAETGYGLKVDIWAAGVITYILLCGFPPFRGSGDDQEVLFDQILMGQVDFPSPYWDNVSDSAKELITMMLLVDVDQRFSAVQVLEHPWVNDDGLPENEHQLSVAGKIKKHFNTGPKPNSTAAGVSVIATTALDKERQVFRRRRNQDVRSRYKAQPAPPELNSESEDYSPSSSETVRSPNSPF

[11] = biological target: T8, IKK-beta (Homo sapiens, UniProt O14920); conditions: 1 μM, duplicate, without preincubation; cited from earlier work
T8 construct: literature Ambit Biosciences

[12] = biological target: T9, JAK2 (catalytic) (Homo sapiens, UniProt O60674); conditions: 1 μM, duplicate, without preincubation; cited from earlier work
T9 construct: catalytic; literature Ambit Biosciences

[13] = biological target: KIT (Homo sapiens, UniProt P10721); conditions: 1 μM, duplicate, without preincubation; cited from earlier work
[14] = biological target: T10, p38-alpha (Homo sapiens, UniProt Q16539); conditions: 1 μM, duplicate, without preincubation; cited from earlier work
T10 construct: literature Ambit Biosciences

[15] = biological target: T11, p38-beta (Homo sapiens, UniProt Q15759); conditions: 1 μM, duplicate, without preincubation; cited from earlier work
T11 construct: literature Ambit Biosciences

[16] = biological target: T12, PDGFRA (Homo sapiens, UniProt P16234); conditions: 1 μM, duplicate, without preincubation; cited from earlier work
T12 construct: literature Ambit Biosciences

[17] = biological target: T13, PDGFRB (Homo sapiens, UniProt P09619); conditions: 1 μM, duplicate, without preincubation; cited from earlier work
T13 construct: literature Ambit Biosciences

[18] = biological target: T14, PLK4 (Homo sapiens, UniProt O00444); conditions: 1 μM, duplicate, without preincubation; cited from earlier work
T14 construct: literature Ambit Biosciences
T14 sequence (O00444 1-970): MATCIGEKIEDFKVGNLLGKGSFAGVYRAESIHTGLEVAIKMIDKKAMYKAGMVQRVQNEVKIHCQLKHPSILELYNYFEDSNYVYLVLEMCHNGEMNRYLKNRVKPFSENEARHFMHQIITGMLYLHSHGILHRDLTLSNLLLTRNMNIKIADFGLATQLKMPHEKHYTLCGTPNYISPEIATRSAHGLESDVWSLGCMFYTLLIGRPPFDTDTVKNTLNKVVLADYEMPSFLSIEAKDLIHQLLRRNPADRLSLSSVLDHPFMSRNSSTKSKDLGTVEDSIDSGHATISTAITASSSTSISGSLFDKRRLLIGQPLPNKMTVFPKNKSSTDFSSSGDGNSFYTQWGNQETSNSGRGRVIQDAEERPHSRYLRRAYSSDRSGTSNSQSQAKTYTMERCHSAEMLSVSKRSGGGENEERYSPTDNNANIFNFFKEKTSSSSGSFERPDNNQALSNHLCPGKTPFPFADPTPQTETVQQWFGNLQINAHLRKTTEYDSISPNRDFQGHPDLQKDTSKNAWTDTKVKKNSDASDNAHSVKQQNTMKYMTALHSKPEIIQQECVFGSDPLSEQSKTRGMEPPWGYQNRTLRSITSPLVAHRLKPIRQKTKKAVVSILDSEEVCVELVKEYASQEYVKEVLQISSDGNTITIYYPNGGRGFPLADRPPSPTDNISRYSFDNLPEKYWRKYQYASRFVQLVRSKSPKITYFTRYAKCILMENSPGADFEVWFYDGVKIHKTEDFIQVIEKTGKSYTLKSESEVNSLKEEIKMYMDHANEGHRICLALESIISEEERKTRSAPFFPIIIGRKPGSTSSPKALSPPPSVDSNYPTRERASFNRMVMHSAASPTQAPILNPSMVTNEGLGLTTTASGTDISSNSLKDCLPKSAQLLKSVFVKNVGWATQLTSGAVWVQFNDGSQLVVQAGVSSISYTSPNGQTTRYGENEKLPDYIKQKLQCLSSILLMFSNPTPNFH

[19] = biological target: T15, PRKCE (Homo sapiens, UniProt Q02156); conditions: 1 μM, duplicate, without preincubation; cited from earlier work
T15 construct: literature Ambit Biosciences
T15 sequence (Q02156 1-737): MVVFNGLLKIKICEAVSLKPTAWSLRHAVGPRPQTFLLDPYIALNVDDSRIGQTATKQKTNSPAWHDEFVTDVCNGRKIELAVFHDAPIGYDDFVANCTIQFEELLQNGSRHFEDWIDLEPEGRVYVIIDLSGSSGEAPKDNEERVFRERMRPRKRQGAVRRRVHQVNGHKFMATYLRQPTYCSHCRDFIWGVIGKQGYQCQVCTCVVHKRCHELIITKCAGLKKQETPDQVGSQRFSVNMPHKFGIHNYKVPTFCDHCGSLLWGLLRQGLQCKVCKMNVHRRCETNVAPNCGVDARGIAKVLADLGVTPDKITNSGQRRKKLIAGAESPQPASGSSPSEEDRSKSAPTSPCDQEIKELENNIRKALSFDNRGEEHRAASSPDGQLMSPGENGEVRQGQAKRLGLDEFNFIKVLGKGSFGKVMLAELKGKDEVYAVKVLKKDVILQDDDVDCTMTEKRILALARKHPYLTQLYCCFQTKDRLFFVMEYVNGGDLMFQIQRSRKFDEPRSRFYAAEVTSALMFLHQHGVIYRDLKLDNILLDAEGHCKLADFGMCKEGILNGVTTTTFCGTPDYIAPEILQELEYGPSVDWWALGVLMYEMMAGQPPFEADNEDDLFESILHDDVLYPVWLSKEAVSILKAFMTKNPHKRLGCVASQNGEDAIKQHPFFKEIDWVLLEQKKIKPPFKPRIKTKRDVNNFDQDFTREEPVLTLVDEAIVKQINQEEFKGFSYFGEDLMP

[20] = biological target: T16, RAF1 (Homo sapiens, UniProt P04049); conditions: 1 μM, duplicate, without preincubation; cited from earlier work
T16 construct: literature Ambit Biosciences

[21] = biological target: T17, ULK2 (Homo sapiens, UniProt Q8IYT8); conditions: 1 μM, duplicate, without preincubation; cited from earlier work
T17 construct: literature Ambit Biosciences

[22] = biological target: T1, BRAF(V600E); design: literature Ambit Biosciences; conditions: 1 μM, duplicate, without preincubation; cited from earlier work

T1 sequence (P15056 whole entry V600E): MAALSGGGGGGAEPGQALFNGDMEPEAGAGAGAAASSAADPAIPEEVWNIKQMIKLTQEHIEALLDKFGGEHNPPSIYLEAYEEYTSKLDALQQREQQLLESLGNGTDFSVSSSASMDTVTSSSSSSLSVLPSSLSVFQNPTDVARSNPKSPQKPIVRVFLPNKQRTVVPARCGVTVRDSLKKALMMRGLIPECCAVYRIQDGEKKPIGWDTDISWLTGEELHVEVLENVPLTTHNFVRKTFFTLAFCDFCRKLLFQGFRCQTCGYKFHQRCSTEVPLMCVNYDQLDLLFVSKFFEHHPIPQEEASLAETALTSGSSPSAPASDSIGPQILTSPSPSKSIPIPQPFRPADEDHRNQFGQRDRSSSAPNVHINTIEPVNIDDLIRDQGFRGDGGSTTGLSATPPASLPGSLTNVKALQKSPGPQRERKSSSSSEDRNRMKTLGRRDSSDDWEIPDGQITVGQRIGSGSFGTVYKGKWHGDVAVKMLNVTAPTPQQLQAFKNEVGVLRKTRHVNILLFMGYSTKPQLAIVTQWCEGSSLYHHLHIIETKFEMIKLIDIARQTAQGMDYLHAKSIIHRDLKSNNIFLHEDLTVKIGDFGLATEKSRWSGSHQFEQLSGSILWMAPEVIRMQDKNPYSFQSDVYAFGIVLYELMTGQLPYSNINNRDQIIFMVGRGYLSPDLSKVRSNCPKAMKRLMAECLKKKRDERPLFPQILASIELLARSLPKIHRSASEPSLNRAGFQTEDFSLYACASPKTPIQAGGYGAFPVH
T8 sequence (O14920 whole entry): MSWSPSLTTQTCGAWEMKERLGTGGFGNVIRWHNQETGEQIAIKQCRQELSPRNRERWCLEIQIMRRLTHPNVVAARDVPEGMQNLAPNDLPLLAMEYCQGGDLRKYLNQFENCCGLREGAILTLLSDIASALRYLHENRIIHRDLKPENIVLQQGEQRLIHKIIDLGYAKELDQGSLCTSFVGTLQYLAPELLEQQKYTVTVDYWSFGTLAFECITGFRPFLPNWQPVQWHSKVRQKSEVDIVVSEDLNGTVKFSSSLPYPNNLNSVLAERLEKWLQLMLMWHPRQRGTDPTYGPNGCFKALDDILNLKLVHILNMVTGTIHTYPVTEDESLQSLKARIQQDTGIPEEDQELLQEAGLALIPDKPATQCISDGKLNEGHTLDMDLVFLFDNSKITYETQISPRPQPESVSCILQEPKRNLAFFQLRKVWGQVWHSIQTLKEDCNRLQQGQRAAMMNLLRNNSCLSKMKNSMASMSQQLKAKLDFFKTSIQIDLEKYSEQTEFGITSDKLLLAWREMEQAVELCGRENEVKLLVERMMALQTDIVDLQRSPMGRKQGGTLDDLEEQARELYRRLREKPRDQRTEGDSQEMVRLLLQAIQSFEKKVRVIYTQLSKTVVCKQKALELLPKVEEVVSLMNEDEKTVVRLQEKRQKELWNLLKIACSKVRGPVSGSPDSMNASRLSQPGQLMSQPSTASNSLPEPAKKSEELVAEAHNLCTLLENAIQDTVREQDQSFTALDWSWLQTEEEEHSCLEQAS
T3 sequence (Q06187 whole entry): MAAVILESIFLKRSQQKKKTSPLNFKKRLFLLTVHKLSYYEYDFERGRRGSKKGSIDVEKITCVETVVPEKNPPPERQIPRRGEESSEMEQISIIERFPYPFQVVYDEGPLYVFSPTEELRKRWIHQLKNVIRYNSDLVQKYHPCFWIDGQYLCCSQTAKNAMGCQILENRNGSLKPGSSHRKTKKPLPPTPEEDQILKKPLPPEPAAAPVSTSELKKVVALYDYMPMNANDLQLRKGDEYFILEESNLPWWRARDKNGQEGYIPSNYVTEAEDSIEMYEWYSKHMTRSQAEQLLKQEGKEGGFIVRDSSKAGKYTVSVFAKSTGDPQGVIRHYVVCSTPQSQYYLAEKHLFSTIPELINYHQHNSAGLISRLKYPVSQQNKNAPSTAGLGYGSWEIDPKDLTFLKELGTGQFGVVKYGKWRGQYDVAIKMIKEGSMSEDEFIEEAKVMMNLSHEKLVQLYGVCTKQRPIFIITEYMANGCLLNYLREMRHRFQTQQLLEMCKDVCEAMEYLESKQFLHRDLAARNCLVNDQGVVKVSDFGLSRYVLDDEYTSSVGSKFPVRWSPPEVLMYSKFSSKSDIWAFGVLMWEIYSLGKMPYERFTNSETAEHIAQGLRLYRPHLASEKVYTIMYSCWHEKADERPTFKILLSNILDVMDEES
KIT, sequence (P10721 26-976): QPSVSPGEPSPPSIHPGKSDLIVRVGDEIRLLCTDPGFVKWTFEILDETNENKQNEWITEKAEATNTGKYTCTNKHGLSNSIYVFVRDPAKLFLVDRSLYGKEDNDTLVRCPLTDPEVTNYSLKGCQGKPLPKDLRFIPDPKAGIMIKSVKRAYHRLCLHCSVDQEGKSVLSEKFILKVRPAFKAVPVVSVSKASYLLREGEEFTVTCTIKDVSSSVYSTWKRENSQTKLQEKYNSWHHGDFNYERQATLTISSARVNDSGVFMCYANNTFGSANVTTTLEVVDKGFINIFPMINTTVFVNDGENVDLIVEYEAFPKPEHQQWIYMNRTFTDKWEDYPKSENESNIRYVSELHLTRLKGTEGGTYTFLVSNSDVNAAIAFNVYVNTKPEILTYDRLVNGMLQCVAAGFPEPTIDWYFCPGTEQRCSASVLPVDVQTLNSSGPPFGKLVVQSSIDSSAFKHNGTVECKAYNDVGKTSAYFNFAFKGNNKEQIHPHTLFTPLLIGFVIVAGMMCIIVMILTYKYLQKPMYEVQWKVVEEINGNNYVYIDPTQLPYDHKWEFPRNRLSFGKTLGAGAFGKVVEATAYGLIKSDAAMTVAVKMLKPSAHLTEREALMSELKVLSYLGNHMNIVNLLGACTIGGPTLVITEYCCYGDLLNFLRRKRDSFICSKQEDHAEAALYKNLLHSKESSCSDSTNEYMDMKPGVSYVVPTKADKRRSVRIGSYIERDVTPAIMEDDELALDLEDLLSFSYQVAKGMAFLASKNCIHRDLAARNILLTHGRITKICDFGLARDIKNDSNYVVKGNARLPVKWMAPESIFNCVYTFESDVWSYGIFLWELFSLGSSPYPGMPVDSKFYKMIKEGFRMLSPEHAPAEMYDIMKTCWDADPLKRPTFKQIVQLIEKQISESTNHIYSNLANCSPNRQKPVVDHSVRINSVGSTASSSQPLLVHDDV
T13 sequence (P09619 33-1106): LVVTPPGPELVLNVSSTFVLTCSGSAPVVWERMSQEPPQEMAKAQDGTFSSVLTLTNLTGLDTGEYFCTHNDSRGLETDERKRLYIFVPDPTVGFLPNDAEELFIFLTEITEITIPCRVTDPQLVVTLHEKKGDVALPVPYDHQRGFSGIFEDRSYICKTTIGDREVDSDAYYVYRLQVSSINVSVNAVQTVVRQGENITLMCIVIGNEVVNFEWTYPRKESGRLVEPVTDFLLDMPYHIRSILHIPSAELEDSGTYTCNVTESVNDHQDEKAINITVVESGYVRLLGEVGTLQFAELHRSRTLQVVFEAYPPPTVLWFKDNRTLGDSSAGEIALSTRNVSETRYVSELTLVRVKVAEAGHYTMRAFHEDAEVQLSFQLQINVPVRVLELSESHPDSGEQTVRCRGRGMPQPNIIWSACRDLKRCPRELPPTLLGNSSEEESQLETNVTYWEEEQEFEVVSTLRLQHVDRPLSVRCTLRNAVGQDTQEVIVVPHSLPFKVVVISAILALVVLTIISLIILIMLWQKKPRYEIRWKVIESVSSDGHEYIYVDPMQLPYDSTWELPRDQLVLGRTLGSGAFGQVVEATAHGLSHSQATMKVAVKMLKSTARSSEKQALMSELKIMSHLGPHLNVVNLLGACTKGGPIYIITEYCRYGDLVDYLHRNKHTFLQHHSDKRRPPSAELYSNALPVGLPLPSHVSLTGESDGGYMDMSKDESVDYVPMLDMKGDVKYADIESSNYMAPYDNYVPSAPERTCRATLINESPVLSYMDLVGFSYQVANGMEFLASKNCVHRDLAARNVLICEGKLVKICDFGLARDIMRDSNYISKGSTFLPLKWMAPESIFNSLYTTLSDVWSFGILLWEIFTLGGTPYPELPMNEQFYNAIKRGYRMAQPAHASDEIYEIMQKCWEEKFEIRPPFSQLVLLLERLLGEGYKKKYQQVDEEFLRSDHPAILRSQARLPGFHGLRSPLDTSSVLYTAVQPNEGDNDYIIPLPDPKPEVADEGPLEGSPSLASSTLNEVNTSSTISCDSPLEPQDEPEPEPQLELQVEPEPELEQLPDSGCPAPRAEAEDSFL
T16 sequence (P04049 whole entry): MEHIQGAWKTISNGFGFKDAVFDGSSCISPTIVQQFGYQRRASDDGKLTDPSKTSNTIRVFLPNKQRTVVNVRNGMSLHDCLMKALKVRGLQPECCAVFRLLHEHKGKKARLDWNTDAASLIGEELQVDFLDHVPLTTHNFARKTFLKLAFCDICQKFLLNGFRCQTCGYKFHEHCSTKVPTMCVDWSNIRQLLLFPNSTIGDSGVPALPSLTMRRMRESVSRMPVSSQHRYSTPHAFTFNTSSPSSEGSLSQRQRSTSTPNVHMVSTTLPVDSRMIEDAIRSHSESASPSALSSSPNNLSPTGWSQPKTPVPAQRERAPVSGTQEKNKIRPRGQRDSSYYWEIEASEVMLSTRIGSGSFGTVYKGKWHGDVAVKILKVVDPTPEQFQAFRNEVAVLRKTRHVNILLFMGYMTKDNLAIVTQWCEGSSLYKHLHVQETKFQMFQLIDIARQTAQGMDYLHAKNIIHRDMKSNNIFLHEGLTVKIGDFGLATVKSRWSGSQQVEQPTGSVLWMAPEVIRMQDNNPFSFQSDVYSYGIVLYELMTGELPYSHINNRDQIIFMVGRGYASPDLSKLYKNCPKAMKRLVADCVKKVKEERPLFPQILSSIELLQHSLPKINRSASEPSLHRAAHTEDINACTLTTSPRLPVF
T2 sequence (P15056 whole entry): as the sequence (P15056 whole entry V600E) above, with E600V counted along it
wild type B-Raf, sequence (P15056 whole entry): as the sequence (P15056 whole entry V600E) above, with E600V counted along it

SMILES: O=C(Nc1ccncc1)c1cc(NC(=O)c2nc(C(F)(F)F)[nH]c2-c2ccc(F)cc2)ccc1Cl [Inhibitor I-2, 5-(4-Fluoro-phenyl)-2-trifluoromethyl-3H-imidazole-4-carboxylic acid [4-chloro-3-(pyridin-4-ylcarbamoyl)-phenyl]-amide]
- activity against any of the kinases tested [1]: no significant activity

SMILES: O=C(Nc1ccc(Oc2ccnc3[nH]c(=O)[nH]c23)cc1)c1nc(C(F)(F)F)[nH]c1-c1ccc(F)cc1 [Inhibitor I-12, 4-(4-{[5-(4-Fluoro-phenyl)-2-trifluoromethyl-3H-imidazole-4-carbonyl]-amino}-phenoxy)-pyridine-2,3-benzimidazolone carboxylic acid methylamide]
- number of panel kinases at >25% inhibition ([1]; panel of 220 kinases, 5 μM): 72 kinases
- number of panel kinases with greater than 50% inhibition ([1]; panel of 220 kinases, 5 μM): 45 kinases

SMILES: Cc1ccc(NC(=O)c2nc(S(C)(=O)=O)[nH]c2-c2ccc(F)cc2)cc1Nc1ccc2ncn(C)c(=O)c2c1 [Inhibitor I-13, 3-(3-methyl-4-oxo-3,4-dihydroquinazolin-6-ylamino)-4-methyl-analine, 5-(4-Fluorophenyl)-2-(methylsulfonyl)-1H-imidazole-4-carboxamide]
- more potent against the mutant verses wild type B-Raf ([2]; B-Raf(V600E) vs wild type B-Raf): approximately 80 fold
- increase in potency vs KIN-0035 ([2]; LanthaScreen assay, IC50 ratio): 10 fold
- pIC50 ([2]; LanthaScreen assay, side by side comparison): 8.18
- change of IC50 value with preincubation ([2]; several hour preincubation period): appeared to decrease over a several hour preincubation period
- pIC50 [3]: ~6.30
- real time kinetic data with B-Raf(V600E) [4]: consistent with either extremely tight binding or irreversible inhibition
- real time kinetic data with B-Raf(V600E) ([4]; listed as SFE-0013): consistent with extremely tight or irreversible inhibition

SMILES: Cc1ccc(NC(=O)c2[nH]c(C(F)(F)F)nc2-c2ccc(F)c(F)c2)cc1Nc1ccc2ncn(C)c(=O)c2c1 [KIN-057]
- inhibition of BRAF [5]: XXX (XXX > 75% @ 1 μM)
- inhibition of BTK [6]: X (X > 25% @ 1 μM)
- inhibition of CDK11 [7]: XX (XX > 50% @ 1 μM)
- inhibition of CDK7 [8]: X (X > 25% @ 1 μM)
- inhibition of CSF1R [9]: X (X > 25% @ 1 μM)
- inhibition of DCAMKL1 [10]: X (X > 25% @ 1 μM)
- inhibition of IKK-beta [11]: X (X > 25% @ 1 μM)
- inhibition of JAK2 (catalytic) [12]: X (X > 25% @ 1 μM)
- inhibition of KIT [13]: XXX (XXX > 75% @ 1 μM)
- inhibition of p38-alpha [14]: XXX (XXX > 75% @ 1 μM)
- inhibition of p38-beta [15]: X (X > 25% @ 1 μM)
- inhibition of PDGFRA [16]: X (X > 25% @ 1 μM)
- inhibition of PDGFRB [17]: XXX (XXX > 75% @ 1 μM)
- inhibition of PLK4 [18]: X (X > 25% @ 1 μM)
- inhibition of PRKCE [19]: X (X > 25% @ 1 μM)
- inhibition of RAF1 [20]: XXXX (XXXX > 90% @ 1 μM)
- inhibition of ULK2 [21]: X (X > 25% @ 1 μM)
- inhibition of BRAF(V600E) [22]: XXX (XXX > 75% @ 1 μM)

More lines, now with the values ahead:

- activity against any of the kinases tested [1]: no significant activity
SMILES: O=C(Nc1ccccn1)c1cc(NC(=O)c2nc(C(F)(F)F)[nH]c2-c2ccc(F)cc2)ccc1Cl [Inhibitor I-1, 5-(4-Fluoro-phenyl)-2-trifluoromethyl-3H-imidazole-4-carboxylic acid [4-chloro-3-(pyridin-2-ylcarbamoyl)-phenyl]-amide]

- selectivity in kinase panel ([1]; panel of 220 kinases, 5 μM): extremely selective for p38-α
SMILES: Cc1ccc(NC(=O)c2nc(C(F)(F)F)[nH]c2-c2ccc(F)cc2)cc1NC(=O)c1c[nH]c2ncccc12 [Inhibitor I-11, 1H-7-Azaindole-3-carboxylic acid (5-{[5-(4-fluoro-phenyl)-2-trifluoromethyl-3H-imidazole-4-carbonyl]-amino}-2-methyl-phenyl)-amide]
